From ChEMBL document CHEMBL1201862, “PubChem BioAssay data set” (2004)
Activity calls are given as the source filed them.

How the values were obtained:
[1] = blockers of bursicon-stimulated LGR2 cAMP reporter – cell-based, HEK293, CRE-luciferase reporter, cherry pick, set 2, dose response (AID 743343); assay type: functional;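 also: transfected cells were stimulated with diluted bursicon conditioned medium after compound addition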
[2] = A549 cell cytotoxicity, dose response, cytotoxicity control, plate reader, cherry-pick, antagonist series (AID 743412); assay type: functional, cell-based
[3] = blockade of melanocortin 4 receptor signaling – cell-based, plate reader, cherry pick, counter-screen for LGR2 antagonist project, dose response (AID 743444); assay type: functional;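 also: transfected HEK 293 cells stimulated with alpha-MSH peptide; potency of inhibitors of the alpha-MSH evoked signal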
Caspase-6 = biological target: T1, Caspase-6 (Homo sapiens, UniProt P55212); test: inhibition of CASP6 peptide cleavage – biochemical, VEID-R110 fluorescence, cherry-pick, dose response (AID 720632)
T1 sequence (P55212 whole entry): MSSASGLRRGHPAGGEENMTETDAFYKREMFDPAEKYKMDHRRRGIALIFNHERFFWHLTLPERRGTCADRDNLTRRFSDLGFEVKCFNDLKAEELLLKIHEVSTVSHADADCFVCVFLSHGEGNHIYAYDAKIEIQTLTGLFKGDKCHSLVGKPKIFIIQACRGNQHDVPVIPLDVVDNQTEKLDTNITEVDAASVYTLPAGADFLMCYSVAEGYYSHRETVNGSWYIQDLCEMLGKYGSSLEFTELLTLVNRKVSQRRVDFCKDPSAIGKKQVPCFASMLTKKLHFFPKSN

Streptococcus = test: GAS UMAA2166 growth inhibition – luminescence, BacTiterGlo, counter-screen for streptokinase expression inhibitor project, dose response (AID 1915); assay type: functional, organism-based;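 also: potency for reduction of bacterial viability or growth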
cells [4] = assay type: functional, cell-based
[5] = system: Streptococcus sp. 'group A'; test: Streptococcus pyogenes SK(-)GAS viability under kanamycin – luminescence, BacTiterGlo, confirmation, counter-screen for streptokinase expression inhibitor project, dose response (AID 1900); assay type: functional, organism-based
Albumin = Albumin (Bos taurus, UniProt P02769); test: Counterscreen for inhibitors of T-cell receptor (TCR)-CD3 interaction: Fluorescence-based biochemical high throughput dose response assay to identify inhibitors of T-cell receptor (TCR)-CD3 interaction using a TAMRA-labeled BSA probe.; assay type: functional
Sequence of Albumin (P02769 whole entry): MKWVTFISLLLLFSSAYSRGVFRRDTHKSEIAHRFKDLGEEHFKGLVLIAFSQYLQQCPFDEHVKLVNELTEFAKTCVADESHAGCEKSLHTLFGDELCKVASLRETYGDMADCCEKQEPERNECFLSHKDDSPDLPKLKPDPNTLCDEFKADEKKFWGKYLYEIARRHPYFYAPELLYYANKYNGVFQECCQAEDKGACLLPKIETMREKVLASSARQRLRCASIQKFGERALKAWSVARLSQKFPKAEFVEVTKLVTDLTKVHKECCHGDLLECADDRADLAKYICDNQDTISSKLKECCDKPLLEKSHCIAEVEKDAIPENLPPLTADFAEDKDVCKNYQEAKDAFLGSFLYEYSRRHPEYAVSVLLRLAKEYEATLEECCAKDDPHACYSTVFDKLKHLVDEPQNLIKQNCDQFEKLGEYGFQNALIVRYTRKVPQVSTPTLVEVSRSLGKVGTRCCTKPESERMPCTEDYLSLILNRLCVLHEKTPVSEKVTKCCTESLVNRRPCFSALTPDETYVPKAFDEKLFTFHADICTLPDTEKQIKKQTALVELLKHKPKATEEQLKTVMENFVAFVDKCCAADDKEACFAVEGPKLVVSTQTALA

cells [6] = assay type: functional, cell-based; remark: listed apart in the source
[7] = Luminescence Cell-Based Dose Response HTS to Identify Inhibitors of 5'UTR Stem-Loop Driven Prion Protein mRNA Translation in H4 Neuroglioblastoma Cells. [Related pubchem assays: 1827 (Project Summary), 1813 (Primary HTS)]; assay type: functional
[8] = luciferase reporter signal suppression in cells – H4 neuroglioma cells, luminescence, dose response (AID 1990); assay type: functional, cell-based
[9] = alpha-synuclein stem-loop luciferase translation blockers – H4 neuroglioma cells, luminescence, confirmation (AID 1988); assay type: functional, cell-based
[10] = THP-1 cell cytotoxicity, dose response, cytotoxicity control for non-replicating M. tuberculosis project (AID 489025); assay type: functional
[11] = Luminescence Cell-Based Dose Response HTS to Identify Activators of Luciferase Translation or Activity in H4 […] Cells. [Related pubchem assays: 1829 (Project Summary), 1814 (Primary HTS)]; assay type: functional
H4 = test: Luminescence Cell-Based Dose Response HTS to Identify Activators of 5'UTR Stem-Loop Driven Prion Protein mRNA Translation in H4 Neuroglioblastoma Cells. [Related pubchem assays: 1829 (Project Summary), 1814 (Primary HTS)]; assay type: functional; conditions: Homo sapiens
[12] = Vero E6 cell cytotoxicity, dose response, cytotoxicity control for non-replicating M. tuberculosis project, secondary assay (AID 492998); assay type: functional, VeroE6; conditions: Vero C1008
cells [13] = assay type: functional
[14] = viability loss in HeLa cells – cytotoxicity control for MgcRacGAP inhibitor project, dose response (AID 624300); assay type: functional
[15] = Luminescence Cell-Based Dose Confirmation HTS to Identify Activators of 5'UTR Stem-Loop Driven Alpha-Synuclein mRNA Translation in H4 Neuroglioblastoma Cells. [Related pubchem assays: 1829 (Project Summary), 1814 (Primary HTS)]; assay type: functional
[16] = biological target: FAD-linked sulfhydryl oxidase ALR (Homo sapiens, UniProt P55789); test: ALR-catalysed DTT oxidation blockers – biochemical, H2O2 detection, luminescence, cherry-pick, dose response (AID 493248)
Sequence of FAD-linked sulfhydryl oxidase ALR (P55789 whole entry): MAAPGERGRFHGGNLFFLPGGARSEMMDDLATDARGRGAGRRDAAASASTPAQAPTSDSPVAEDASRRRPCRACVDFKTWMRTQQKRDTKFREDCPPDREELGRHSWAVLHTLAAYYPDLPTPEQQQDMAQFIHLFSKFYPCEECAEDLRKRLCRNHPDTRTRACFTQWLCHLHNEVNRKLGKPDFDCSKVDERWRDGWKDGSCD

[17] = biological target: T2, Rac GTPase-activating protein 1 (Homo sapiens, UniProt Q9H0H5); test: blockers of MgcRacGAP-driven Rac1 GTP hydrolysis – biochemical, ADP Hunter fluorescence, primary and confirmatory, confirmation (AID 624330); assay type: functional
T2 sequence (Q9H0H5 whole entry): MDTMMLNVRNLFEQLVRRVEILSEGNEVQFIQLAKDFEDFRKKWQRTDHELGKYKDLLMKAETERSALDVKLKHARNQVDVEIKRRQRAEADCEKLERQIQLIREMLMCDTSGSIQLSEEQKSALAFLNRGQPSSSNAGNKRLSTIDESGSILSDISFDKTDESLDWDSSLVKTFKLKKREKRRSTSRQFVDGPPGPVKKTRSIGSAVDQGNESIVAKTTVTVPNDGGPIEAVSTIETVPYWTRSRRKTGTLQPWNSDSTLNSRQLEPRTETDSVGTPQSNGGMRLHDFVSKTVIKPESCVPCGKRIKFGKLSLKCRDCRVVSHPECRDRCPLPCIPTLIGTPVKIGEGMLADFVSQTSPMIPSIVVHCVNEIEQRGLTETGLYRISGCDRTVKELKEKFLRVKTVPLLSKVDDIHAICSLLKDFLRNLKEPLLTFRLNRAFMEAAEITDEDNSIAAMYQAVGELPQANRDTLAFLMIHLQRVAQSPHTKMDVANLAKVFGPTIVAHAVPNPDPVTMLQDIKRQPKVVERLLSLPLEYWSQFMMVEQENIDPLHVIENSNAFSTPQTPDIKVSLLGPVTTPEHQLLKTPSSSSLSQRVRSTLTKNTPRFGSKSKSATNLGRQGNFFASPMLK

[18] = biological target: Heat shock protein HSP 90-alpha (Homo sapiens, UniProt P07900); assay type: functional, organism-based
[19] = biological target: Mitogen-activated protein kinase 10 (Homo sapiens, UniProt P53779); test: Dose response biochemical screening assay for inhibitors of c-Jun N-Terminal Kinase 3 (JNK3). [Related pubchem assays: 746 ]
Sequence of Mitogen-activated protein kinase 10 (P53779 whole entry): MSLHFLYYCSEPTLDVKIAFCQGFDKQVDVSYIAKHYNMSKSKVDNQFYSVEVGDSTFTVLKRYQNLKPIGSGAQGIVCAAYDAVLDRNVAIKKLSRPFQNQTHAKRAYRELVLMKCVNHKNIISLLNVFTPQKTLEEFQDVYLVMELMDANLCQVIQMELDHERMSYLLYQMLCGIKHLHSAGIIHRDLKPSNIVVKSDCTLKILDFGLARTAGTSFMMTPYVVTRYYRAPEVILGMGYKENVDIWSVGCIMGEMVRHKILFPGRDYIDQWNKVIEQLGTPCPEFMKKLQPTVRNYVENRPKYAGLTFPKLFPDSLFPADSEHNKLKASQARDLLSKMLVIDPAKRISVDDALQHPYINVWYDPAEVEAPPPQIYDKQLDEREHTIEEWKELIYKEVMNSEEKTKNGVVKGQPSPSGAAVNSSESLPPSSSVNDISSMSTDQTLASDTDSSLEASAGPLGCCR

[20] = biological target: T3, Tyrosyl-DNA phosphodiesterase 2 (Homo sapiens, UniProt O95551); test: potency against TDP2 phosphodiesterase activity – biochemical, epi absorbance, IC50, dose response (AID 743297)
T3 sequence (O95551 whole entry): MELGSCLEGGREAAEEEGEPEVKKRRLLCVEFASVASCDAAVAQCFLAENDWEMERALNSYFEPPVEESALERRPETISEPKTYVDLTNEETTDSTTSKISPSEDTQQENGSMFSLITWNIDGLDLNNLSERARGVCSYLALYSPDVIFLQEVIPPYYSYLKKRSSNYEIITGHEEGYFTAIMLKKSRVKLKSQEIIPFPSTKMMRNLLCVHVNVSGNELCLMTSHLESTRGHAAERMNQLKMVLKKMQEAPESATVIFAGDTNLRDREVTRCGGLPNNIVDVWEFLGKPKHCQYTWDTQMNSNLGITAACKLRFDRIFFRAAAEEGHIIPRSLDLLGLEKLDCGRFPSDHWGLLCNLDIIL

[21] = biological target: T4, Histone-lysine N-methyltransferase NSD2 (Homo sapiens, UniProt O96028); assay type: biochemical
T4 sequence (O96028 whole entry): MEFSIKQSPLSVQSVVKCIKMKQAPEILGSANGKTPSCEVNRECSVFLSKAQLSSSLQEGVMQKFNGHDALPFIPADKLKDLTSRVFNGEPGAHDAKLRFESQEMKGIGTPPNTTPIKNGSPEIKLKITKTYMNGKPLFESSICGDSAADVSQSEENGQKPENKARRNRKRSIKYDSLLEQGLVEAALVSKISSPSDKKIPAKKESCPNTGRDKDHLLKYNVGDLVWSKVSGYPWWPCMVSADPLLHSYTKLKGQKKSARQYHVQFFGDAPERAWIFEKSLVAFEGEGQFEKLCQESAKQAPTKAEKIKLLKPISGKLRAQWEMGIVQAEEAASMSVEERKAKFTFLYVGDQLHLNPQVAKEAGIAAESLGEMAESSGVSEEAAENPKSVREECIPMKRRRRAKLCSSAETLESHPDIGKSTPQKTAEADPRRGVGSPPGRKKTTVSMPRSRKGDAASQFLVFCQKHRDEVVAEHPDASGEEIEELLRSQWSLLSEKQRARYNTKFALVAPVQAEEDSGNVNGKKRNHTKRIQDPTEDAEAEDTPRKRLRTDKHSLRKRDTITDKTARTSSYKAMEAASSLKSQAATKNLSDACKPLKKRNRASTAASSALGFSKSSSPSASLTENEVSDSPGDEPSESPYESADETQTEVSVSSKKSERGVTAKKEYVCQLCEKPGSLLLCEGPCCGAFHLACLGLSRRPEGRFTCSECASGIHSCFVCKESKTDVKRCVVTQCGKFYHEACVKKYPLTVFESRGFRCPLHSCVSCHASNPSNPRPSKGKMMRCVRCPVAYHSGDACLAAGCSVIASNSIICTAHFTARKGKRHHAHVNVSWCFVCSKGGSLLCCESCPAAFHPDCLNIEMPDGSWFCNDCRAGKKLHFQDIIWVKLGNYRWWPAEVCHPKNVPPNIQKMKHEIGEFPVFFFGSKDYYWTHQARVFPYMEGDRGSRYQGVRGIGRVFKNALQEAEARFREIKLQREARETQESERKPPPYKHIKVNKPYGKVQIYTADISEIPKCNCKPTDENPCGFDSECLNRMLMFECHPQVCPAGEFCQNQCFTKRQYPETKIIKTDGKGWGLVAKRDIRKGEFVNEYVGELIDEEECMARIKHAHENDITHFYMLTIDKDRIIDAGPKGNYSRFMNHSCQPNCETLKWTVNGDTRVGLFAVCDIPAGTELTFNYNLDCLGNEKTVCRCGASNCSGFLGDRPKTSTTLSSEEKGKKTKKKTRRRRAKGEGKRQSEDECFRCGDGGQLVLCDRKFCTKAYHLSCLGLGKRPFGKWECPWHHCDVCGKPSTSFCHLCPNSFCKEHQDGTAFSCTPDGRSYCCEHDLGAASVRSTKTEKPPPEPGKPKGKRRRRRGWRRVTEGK

Leucine aminopeptidase = biological target: T5, Leucine aminopeptidase (Plasmodium falciparum 3D7, UniProt Q8IL11); test: P. falciparum M17LAP inhibitors, primary screen, biochemical, fluorogenic H-Leu-NHMec substrate, 1536-well (AID 1619); assay type: functional
T5 sequence (Q8IL11 whole entry): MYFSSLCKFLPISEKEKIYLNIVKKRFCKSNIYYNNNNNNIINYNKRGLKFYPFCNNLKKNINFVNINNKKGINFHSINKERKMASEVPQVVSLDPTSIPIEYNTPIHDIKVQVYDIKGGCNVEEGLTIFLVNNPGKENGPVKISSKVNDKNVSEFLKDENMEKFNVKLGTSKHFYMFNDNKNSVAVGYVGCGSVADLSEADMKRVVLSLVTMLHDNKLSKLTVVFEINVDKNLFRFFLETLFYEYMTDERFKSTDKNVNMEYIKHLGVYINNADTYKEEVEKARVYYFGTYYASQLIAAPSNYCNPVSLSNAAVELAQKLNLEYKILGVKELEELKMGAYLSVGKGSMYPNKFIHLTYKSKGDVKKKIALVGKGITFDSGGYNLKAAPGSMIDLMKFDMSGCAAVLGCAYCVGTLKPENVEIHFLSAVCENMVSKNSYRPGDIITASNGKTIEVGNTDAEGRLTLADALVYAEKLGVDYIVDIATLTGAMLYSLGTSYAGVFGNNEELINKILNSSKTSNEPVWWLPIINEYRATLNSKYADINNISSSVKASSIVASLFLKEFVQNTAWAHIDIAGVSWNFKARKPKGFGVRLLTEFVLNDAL

In the case of O=C1CC(c2ccc3c(c2)OCO3)Sc2nc3ccccc3n21 (stereo not drawn), the AC50 [1] is reported as 13.1 µM (active), the AC50 [2] is reported as > 52 µM (inactive) and the AC50 [3] is reported as 11.2 µM (active).

With O=C(Cn1cnc([N+](=O)[O-])n1)c1ccc(O)c(O)c1 the AC50 (Caspase-6) was 43.9 µM (active).

For Cc1nc2ccccc2c(=O)n1/N=C/c1cc(Br)cc(Br)c1O, the EC50 (Streptococcus) was 8.18 µM (active), the EC50 (cells [4]) was > 350 µM (not active) and the EC50 [5] was 5.09 µM (active). The IC50 (Albumin) was > 94.1 µM (inactive) and the EC50 (cells [6]) was > 350 µM (not active).

For CCCCCCn1c(=O)c(C(=O)Nc2ncccc2O)c(O)c2ccccc21, the EC50 [7] was 22.7 µM (active), the EC50 [8] was 10.7 µM (active) and the EC50 [9] was 9.12 µM (active). The IC50 (Albumin) was > 94.2 µM (inactive).

For COc1ccc(/C(C#N)=C2C=C/C(=N/O)C=C/2)cc1, the CC50 [10] was 13 µM (active), the EC50 [11] was 14.5 µM (active) and the EC50 (H4) was 17.6 µM (active). For the same molecule, the CC50 [12] was 13.3 µM (active), the IC50 (cells [13]) was 44.8 µM (active) and the CC50 [14] was 89.3 µM (active). The EC50 [15] was 16.7 µM (active), the AC50 [16] was 5.88 µM (active) and the IC50 [17] was 93 µM (active). The AC50 [18] was 4.64 µM (active).

In the case of O=S(=O)(c1ccc2c(c1)OCCO2)N1CCC(n2cnc3cc(F)ccc32)CC1, the IC50 [19] is reported as 49.4 µM (not active).

With CC(=O)N1CCn2c3c(c(=O)c4cc(C)ccc42)CCC31 (stereo not drawn) the IC50 [20] was 43.5 µM (inactive) and the AC50 [21] was 7.99 µM (active).

With CCOc1ccc(NC(=O)CN2C(=O)C3CCCN3C2=O)cc1 (stereo not drawn) the IC50 (Leucine aminopeptidase) was 3.23 µM (active) and the IC50 [19] was > 93.1 µM (not active).
